From patent US9187784B2, “EphA4 is a disease modifier in motor neuron disease” (VIB VZW, priority 2011, dated 2015) come the findings set out here.

The test system of this series is TDP43A315T embryos. Kind of series: mutant TDP-43-induced motor axonopathy in zebrafish embryos. The series is classed as in vivo. How it is done:
FIG. 14: Inhibiting EphA4 signaling rescues motor axonopathies induced by overexpression of mutant TDP-43 and knockdown of Smn. Y-axes show motor axon length of zebrafish embryos (30 hpf) expressing TDP^WT (black bar) or TDP^A315T (white bar) (Panels A, B) or with unaltered (black bar) or reduced expression levels of Smn (white bar) (Panels C, D). Smn knockdown was established by injection of 3 ng (Panel C) or 6 ng (Panel D) atg-smn morpholino. Ctr-smn morpholino was injected as control. RTK1 signaling was inhibited by injection of 3 ng atg-RTK1 morpholino (shaded bars) (Panels A, C) or by treatment with C1 (500 μM, shaded bars) (Panels B, D). Injection of ctr-RTK1 morpholino and application of a 1/250 dilution of DMSO were used as control. ANOVA and Bonferroni's multiple comparison tests were used for statistical analysis: TDP^A315T/atg-RTK1 (n=24) vs. TDP^A315T/ctr-RTK1 (n=34, p=7.86×10^−5, Panel A), TDP^A315T/C1 (n=21) vs. TDP^A315T/DMSO (n=21, p=0.045, Panel B), atg-smn/atg-RTK1 (n=35) vs. atg-smn/ctr-RTK1 (n=35, p=4.93×10^−8, Panel C), atg-smn/C1 (n=91) vs. atg-smn/DMSO (n=105, p=1.27×10^−6, Panel D). Error bars are s.e.m.
Mann-Whitney test was used to determine significance between TDPA315T/ctr-RTK1 (4.5 ng) vs. TDPA315T/atg-RTK1 (4.5 ng, * p=0.001) and between TDPA315T/control vs. TDPA315T/C1 (° p=0.029). Control=1/250 DMSO and C1=500 μM.
A morpholino database of translation-blocking morpholinos (atg-mo) was used to perform a morpholino-based knockdown screening in a zebrafish model for ALS.^13 The standard control morpholino (5′-[…]-′3) (SEQ ID NO:4), provided by Gene tools, was used as control. Three nanograms of morpholino were co-injected with […] of SOD1 mRNA and the effect of gene knockdown on the mutant SOD1-induced axonopathy analyzed. Each morpholino was tested in two separate experiments. Only morphologically normal embryos were included for further analysis. Overexpression of SOD1 or TDP-43, applied to validate the protective morpholino, was established by injection of 1.76 ng SOD1 mRNA or 1.43 ng TDP-43 mRNA, respectively. Antisense morpholinos to knockdown zebrafish RTK1, RTK2, Smn and their five base pair-mismatch control morpholinos were developed by Gene tools: atg-RTK1 (5′-[…]-′3) (SEQ ID NO:5), atg-RTK2 (5′-[…]-[…]-′3) (SEQ ID NO:6), splice-RTK2 (5′-[…]-[…]-′3) (SEQ ID NO:7) and atg-smn (5′-[…]-3′) (SEQ ID NO:8). Compound 1 (2,5-dimethylpyrrolyl benzoic acid, Matrix Scientific) dissolved in DMSO was added to the water of 6-hpf-old zebrafish embryos.

Marks after values point to notes of the source that are not given here.

For “5′-CTGTGAACACAAGCGCAGCCATTGG-′3 (all phosphorodiamidate morpholino (PMO)) [atg-RTK1]”, the “% affected embryos” value is given as 11* (43) % (TDPA315T embryos, morpholino 4.5 ng) and 9 (42) % (TDPWT embryos, morpholino 4.5 ng). Under “zebrafish embryos”, the “effect on outgrowth deficit and aberrant branching induced by mutant TDP-43” value was “rescued the outgrowth deficit and aberrant branching induced by mutant TDP-43”.

For the compound `Cc1ccc(C)n1-c1ccc(C(=O)O)c(O)c1` [Compound C1], the “% affected embryos” value reads like this: (TDPA315T embryos, C1 500 μM) 25° (16) %; (TDPWT embryos, C1 500 μM) 33 (36) %.
